Like-named read-outs stand apart in the source and are kept apart here.
Key:
PAH = conditions: oral; cited from earlier work
men with ED = conditions: cited from earlier work
[1] = system: men with mild-to-severe ED; conditions: cited from earlier work
[2] = hydrophobicity scale of amino acids; format: physicochemical; conditions: scale on which glycine has the value 0.5
Text: Hydrophobicity is generally defined with respect to the partition of an amino acid between a nonpolar solvent and water. Hydrophobic amino acids are those acids which show a preference for the nonpolar solvent. Relative hydrophobicity of amino acids can be expressed on a hydrophobicity scale on which glycine has the value 0.5. On such a scale, amino acids which have a preference for water have values below 0.5 and those that have a preference for nonpolar solvents have a value above 0.5. As used herein, the term hydrophobic amino acid refers to an amino acid that, on the hydrophobicity scale has a value greater or equal to 0.5, in other words, has a tendency to partition in the […] which is at least equal to that of glycine.
A mixture including 40 weight % of an amino acid and 60 weight % DPPC is formed in a 70/30 vol/vol ethanol-water co-solvent and spray-dried and the geometric aerodynamic diameters for the particles are determined. In addition, the hydrophobicity and tap density may also be determined. Tap density may be determined using the equation provided above.

[3] = system: erectile dysfunction (ED); conditions: in vivo; cited from earlier work
[4] = glass stability of derivatized carbohydrates immersed in aqueous medium; format: physicochemical; conditions: THEX: saline medium at 37° C.; lactose derivative: water
[5] = system: African Green monkey kidney-derived cell line Vero; assay: toxicity of HDC glasses in vitro; format: cell-based; conditions: week of culture
Procedure: A saturated solution of TOAC in deionized distilled water (0.42 g in 20 mls) is tested for toxicity in vitro using the African Green monkey kidney-derived cell line Vero, in either a 10-fold serial dilution or by adding the TOAC powder directly to the tissue culture medium.

pulmonary hypertension [6] = conditions: cited from earlier work
patients with severe PAH = conditions: versus placebo; cited from earlier work
[7] = system: patients with pulmonary hypertension; conditions: administered by aerosolization; cited from earlier work
pulmonary hypertension [8] = conditions: in vivo; cited from earlier work
[9] = dissolution of HDC glass discs in water; format: physicochemical

For `CC#CCC(C)[C@H](O)/C=C/[C@@H]1[C@H]2c3cccc(CCCC(=O)O)c3O[C@H]2C[C@H]1O` (mixture of isomers) [Beraprost], the “benefit in PAH” value (PAH) is given as “benefit in a study in PAH at 3 and 6 months but not at 9 or 12 months”.
In the case of `CN1CC(=O)N2[C@H](c3ccc4c(c3)OCO4)c3[nH]c4ccccc4c3C[C@@H]2C1=O` [Cialis, tadalafil], the “most commonly reported treatment-emergent adverse effects” value (men with ED; 10 mg, increased to 20 mg, at least one year) is listed as “headache and upset stomach”, the “discontinuation rate for any individual adverse event” value (men with ED; in vivo) is listed as “less than 1%” and the “patients who discontinued the study due to side effects” value (men with ED; in vivo) is listed as “Five”. For the same compound, the “most commonly reported treatment-emergent adverse effects” value ([1]; greater than or equal to 5 percent) was “headache, back pain, and upset stomach” and the “patients who discontinued the study because of adverse events” value ([1]; in vivo) was 5%.
With `N[C@@H](CCC(=O)O)C(=O)O` [Glutamate] the hydrophobicity [2] was 0.043.
Work on `CC[C@H](C)[C@H](N)C(=O)O` [Isoleucine] yielded a hydrophobicity [2] of 0.943.
For `CCCc1nc(C)c2c(=O)[nH]c(-c3cc(S(=O)(=O)N4CCN(CC)CC4)ccc3OCC)nn12` [Levitra, vardenafil HC1], the “most commonly reported side effects” value [3] is listed as “headache, flushing, and stuffy or runny nose”.
`N[C@@H](Cc1ccccc1)C(=O)O` [Phenylalanine] gave a hydrophobicity [2] of 0.501.
For `CC(C)(C)CC(=O)O[C@@H]1[C@@H](OC(=O)CC(C)(C)C)[C@@H](O[C@H]2O[C@H](CO)[C@@H](OC(=O)CC(C)(C)C)[C@H](OC(=O)CC(C)(C)C)[C@H]2OC(=O)CC(C)(C)C)O[C@H](CO)[C@H]1OC(=O)CC(C)(C)C` [THEX, Trehalose hexa-3,3-dimethylbutyrate], the “stability of the glassy state when immersed” value [4] was “stable in the glassy state”.
With `CC(=O)OCC1OC(OC2OC(COC(C)=O)C(OC(C)=O)C(OC(C)=O)C2OC(C)=O)C(OC(C)=O)C(OC(C)=O)C1OC(C)=O` (centres unmarked) [TOAC, trehalose octaacetate] the toxicity in vitro ([5]; saturated solution in water (0.42 g in 20 mls), 10-fold serial dilution or powder added to the medium) was “No toxic effects” and the cell division [5] was “normal”.
In the case of `COc1ccccc1Oc1c(NS(=O)(=O)c2ccc(C(C)(C)C)cc2)nc(-c2ncccn2)nc1OCCO` [bosentan], the liver toxicity (pulmonary hypertension [6]; higher dose) is given as “liver toxicity occurred” and the “six minute walk test” value (pulmonary hypertension [6]; whole group) is given as “improved”.
In the case of `CC#CCC(C)[C@H](O)/C=C/[C@@H]1[C@H]2C/C(=C/CCCC(=O)O)C[C@H]2C[C@H]1O` (some centres unmarked) [iloprost], the exercise capacity (patients with severe PAH) is listed as “improved exercise capacity”.
For `CC(=O)OC[C@H]1O[C@@H](O[C@H]2[C@H](OC(C)=O)[C@@H](OC(C)=O)C(OC(=O)C(C)C)O[C@@H]2COC(C)=O)[C@H](OC(C)=O)[C@@H](OC(C)=O)[C@H]1OC(C)=O` (some centres unmarked) [lactose isobutyrate heptaacetate], the “stability of the glassy state when immersed” value [4] was “very stable in the glassy state”.
For `CCCCC[C@H](O)/C=C/[C@@H]1[C@H]2C/C(=C/CCCC(=O)O)O[C@H]2C[C@H]1O` [prostacyclin], the duration of effects [7] is listed as 15 min.
In the case of `Cc1cc2c(cc1CC(=O)c1sccc1S(=O)(=O)Nc1onc(C)c1Cl)OCO2` [sitaxsentan], the “decrease in pulmonary vascular resistance” value (pulmonary hypertension [8]) is listed as 30% and the “six minute walk test” value (pulmonary hypertension [8]) is listed as “improvement”.
With `CC(=O)OC[C@H]1O[C@H](OC(C)=O)[C@H](OC(C)=O)[C@@H](OC(C)=O)[C@@H]1OC(C)=O` [α-D-glucose pentaacetate] the “loss of original weight” value ([9]; disc in 1 l of water replaced daily, 7 days) was 20%.
In the case of `CC(=O)OC[C@H]1O[C@@H](OC(C)=O)[C@H](OC(C)=O)[C@@H](OC(C)=O)[C@@H]1OC(C)=O` [β-D-glucose pentaacetate], the “solubility of the glass in water” value [9] was “poorly soluble in water” and the “loss of original weight” value ([9]; disc 20 mm diameter, 2.5 mm thick, flowing water, 10 days) was “about 33%”.

From patent US20060147520A1, “Treatment of pulmonary hypertension by inhaled iloprost with a microparticle formulation” (priority 2004, published 2006)
